Laboratory results as given in patent publication US20240368191A1, “HETEROCYCLIC COMPOUNDS AND USES THEREOF” (Kumquat Biosciences Inc., priority 2021, published 2024).

Experiments:
[1] = biological target: T1, KRAS G12D 1-169 (His-tagged, GDP-loaded) (Homo sapiens, UniProt P01116, G12D); assay: Covalent modification of KRAS protein by intact-protein LC-MS; type: binding; conditions: comparable or same conditions as K-Ras G12S
T1 construct: His -tagged GDP-loaded G12D 1-169; made in house; host or cells: E. coli, e.g. BL21 (DE3)
T1 sequence (P01116 1-169 isoform P01116-2 G12D): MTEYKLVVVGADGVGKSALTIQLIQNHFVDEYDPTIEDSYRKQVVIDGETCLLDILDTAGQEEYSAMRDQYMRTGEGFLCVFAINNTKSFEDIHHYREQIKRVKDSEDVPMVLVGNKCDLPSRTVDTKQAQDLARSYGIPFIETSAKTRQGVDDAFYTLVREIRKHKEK
How it was run: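 Percent modification is derived from deconvoluted intact-protein LC-ESI-MS peak intensities of adducted versus unmodified KRAS. GDP-loaded His-tagged KRAS 1-169 (~2 μM, HEPES buffer at physiological conditions) was exposed to compound for 24 hrs at room temperature, then quenched with formic acid before C4 reversed-phase separation.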

[2] = system: LS123 cells; assay: Cell proliferation assay (CellTiter-Glo), K-Ras G12S cells; type: cell-based; conditions: Comparative Compound A lacking the warhead vs Compound B
Description: A549 (ATCC CRL-185) and LS123 (ATCC CRL-255) cell lines comprise a G12S mutation and can be used to assess Ras cellular signaling in vitro, e.g., in response to the compounds herein. A549 culture medium is prepared with RPMI-1640 and 10% heat-inactivated FBS. LS123 culture medium is prepared with RPMI-1640 and 10% heat-inactivated FBS. A CellTiter-Glo (CTG) luminescent based assay (Promega) is used to assess growth of the cells, as a measurement of the ability of the compounds herein to inhibit Ras signaling in the cells. The cells (e.g., 800 per well) are seeded in their respective culture medium in standard tissue culture-treated 384-well format plates (Falcon #08-772-116) or ultra-low attachment surface 384-well format plates (S-Bio #MS-9384WZ). The day after plating, cells are treated with a dilution series (e.g., a 10 point 3-fold dilution series) of the compounds herein (e.g., approximately 40 μl final volume per well). Cell viability can be monitored (e.g., approximately 6 days later) according to the manufacturer's recommended instructions, where the CellTiter-Glo reagent is added (e.g., approximately 10 μl), vigorously mixed, covered, and placed on a plate shaker (e.g., approximately for 20 min) to ensure sufficient cell lysis prior to assessment of luminescent signal. The IC50 values are determined using the four parameter fit. The resulting IC50 value is a measurement of the ability of the compounds herein to reduce cell growth of Ras-driven cells (e.g., tumor cell lines) in vitro and/or in vivo.

[3] = Metabolic (microsomal) stability assay; conditions: pooled liver microsomes, pH 7.4
[4] = microsomes

SMILES | covalent labeling of K-Ras G12D [1] | Compound IC50 Ratio IC50 (Cpd A):IC50 (Cpd B) [2] | half-life at 0.5 μM [3] | T½ microsomal stability [4]
N#Cc1c(N)sc2c(F)ccc(-c3c(Cl)cc4c(N5CC6(CCCN(C(=O)n7cncn7)C6)C5)nc(OC[C@@]56CCCN5C[C@H](F)C6)nc4c3F)c12 [Compound A266, 4-(4-(6-(1H-1,2,4-triazole-1-carbonyl)-2,6-diazaspiro[3.5]-nonan-2-yl)-6-chloro-8-fluoro-2-(((2R,7aS)-2-fluorotetra-hydro-1H-pyrrolizin-7a(5H)-yl)methoxy)quinazolin-7-yl)-2-amino-7-fluorobenzo[b]thio-phene-3-carbonitrile] | essentially no detectable labeling | >4 (LS123 cells) | > 10 min | 
N#Cc1cnn(C(=O)N2C3CCC2CN(c2nc(OC[C@@]45CCCN4C[C@H](F)C5)nc4c(F)c(-c5ccc(F)c6sc(N)c(C#N)c56)c(Cl)cc24)C3)c1 [Compound A278, 1-(3-(7-(2-amino-3-cyano-7-fluorobenzo[b]thiophen-4-yl)-6-chloro-8-fluoro-2-(((2R,7aS)-2-fluorotetrahydro-1H-pyrrolizin-7a(5H)-yl)methoxy)quinazolin-4-yl)-3,8-diazabicyclo[3.2.1]-octane-8-carbonyl)-1H-pyr-azole-4-carbonitrile] |  |  |  | greater than 10 mins
